According to patent publication US5023263A, “42-oxorapamycin” (American Home Products Corporation, priority 1990, dated 1991):
Values after ≈ are worked out from the molar mass of the structure shown.

Columns and labels:
[1] = tested on: mixed lymphocyte reaction (popliteal lymph node); assay: in vivo popliteal lymph node (PLN) test procedure (mixed lymphocyte reaction); parameters: species or system mice (irradiated BALB/c spleen cells into C3H recipients); conditions: for PLN (ratio): Table 1, daily p.o. Day 0 to Day 4
Protocol: (§1) Immunosuppressive activity was evaluated in an in vitro standard pharmacological test procedure to measure lymphocyte proliferation (LAF) and in two in vivo standard pharmacological test procedures. The first in vivo procedure was a popliteal lymph node (PLN) test procedure which measured the effect of compounds of this invention on a mixed lymphocyte reaction and the second in vivo procedure evaluated the survival time of a pinch skin graft.
A mixed lymphocyte reaction (MLR) occurs when lymphoid cells from genetically distinct animals are combined in tissue culture. Each stimulates the other to undergo blast transformation which results in increased DNA synthesis that can be quantified by the incorporation of tritiated thymidine. Since stimulating a MLR is a function of disparity at Major Histocompatibility antigens, an in vivo popliteal lymph node (PLN) test procedure closely correlates to host vs. graft disease. Briefly, irradiated spleen cells from BALB/c donors are injected into the right hind foot pad of recipient C3H mice. The drug is given daily, p.o. from Day 0 to Day 4. On Day 3 and Day 4, tritiated thymidine is given i.p., b.i.d. On Day 5, the hind popliteal lymph nodes are removed and dissolved, and radioactivity counted. The corresponding left PLN serves as the control for the PLN from the injected hind foot. Percent suppression is calculated using the non-drug treated animals as allogenic control. […] Results are expressed by the following ratio: [formula]

pinch skin graft = assay: survival time of pinch skin graft; type: in vivo, mice (male DBA/2 donors, male BALB/c recipients)
Protocol: as §1
The second in vivo test procedure is designed to determine the survival time of pinch skin graft from male DBA/2 donors transplanted to male BALB/c recipients. The method is adapted from Billingham R. E. and Medawar P. B., J. Exp. Biol. 28:385-402, (1951). Briefly, a pinch skin graft from the donor is grafted on the dorsum of the recipient as a homograft, and an autograft is used as control in the same region. […] Untreated recipients serve as rejection control. The graft is monitored daily and observations are recorded until the graft becomes dry and forms a blackened scab. This is considered as the rejection day. The mean graft survival time (number of days ±S.D.) of the drug treatment group is compared with the control group.

Candida albicans 3669 = assay: antifungal plate assay (MIC); type: cell-based; conditions: strain 3669, plate disk assay
Protocol: (§2) The following represents the typical assay procedure used. Compound to be tested was placed on sterile dried 1/4" plate disks, and allowed to dry. Agar plates were seeded with fungi and allowed to solidify. The impregnated disks were placed on the seeded Agar surface and incubated for the time required for the particular culture. Results are expressed in MIC (μg/ml) to inhibit growth.

[2] = tested on: Candida albicans ATCC 10231; assay: antifungal plate assay (MIC); type: cell-based; conditions: ATCC10231, plate disk assay
Protocol: as §2

[3] = tested on: Candida albicans ATCC 38246; assay: antifungal plate assay (MIC); type: cell-based; conditions: ATCC38246, plate disk assay
Protocol: as §2

[4] = tested on: Candida albicans ATCC 38247; assay: antifungal plate assay (MIC); type: cell-based; conditions: ATCC38247, plate disk assay
Protocol: as §2

[5] = tested on: Candida albicans ATCC 38248; assay: antifungal plate assay (MIC); type: cell-based; conditions: ATCC38248, plate disk assay
Protocol: as §2

Candida albicans = conditions: in vitro and in vivo; cited from earlier work
[6] = tested on: experimental allergic encephalomyelitis; conditions: model for multiple sclerosis; cited from earlier work
adjuvant arthritis = conditions: model for rheumatoid arthritis; cited from earlier work
IgE-like antibodies = conditions: in vivo; cited from earlier work
transplant rejection = conditions: cited from earlier work

In the case of CO[C@H]1C[C@@H]2CC[C@@H](C)[C@@](O)(O2)C(=O)C(=O)N2CCCC[C@H]2C(=O)O[C@H]([C@H](C)C[C@@H]2CCC(=O)[C@H](OC)C2)CC(=O)[C@H](C)/C=C(\C)[C@@H](O)[C@@H](OC)C(=O)[C@H](C)C[C@H](C)/C=C/C=C/C=C/1C [42-oxorapamycin], the “PLN test result in words” value ([1]; interpretation of negative PLN ratio) is reported as “may cause T cell proliferation”, the “PLN (ratio)” value [1] is reported as -0.93 and the “Skin Graft survival time (days + SD)” value (pinch skin graft; mean ± S.D., intraperitoneally) is reported as 10.17 ± 0.41 days. For the same compound, the “survival time of the skin graft, in words” value (pinch skin graft; vs rejection within 6-7 days without immunosuppressive agent) was “increased survival time”, the MIC (Candida albicans 3669) was 0.05 µg/mL (≈ 0.0548 µM) and the MIC [2] was 0.006 µg/mL (≈ 0.00658 µM). The MIC [3] was 0.05 µg/mL (≈ 0.0548 µM), the MIC [4] was 0.125 µg/mL (≈ 0.137 µM) and the MIC [5] was 0.025 µg/mL (≈ 0.0274 µM).

In the case of CO[C@H]1C[C@@H]2CC[C@@H](C)[C@@](O)(O2)C(=O)C(=O)N2CCCC[C@H]2C(=O)O[C@H]([C@H](C)C[C@@H]2CC[C@@H](O)[C@H](OC)C2)CC(=O)[C@H](C)/C=C(\C)[C@@H](O)[C@@H](OC)C(=O)[C@H](C)C[C@H](C)/C=C/C=C/C=C/1C [Rapamycin, rapamycin], the “Percent suppression (PLN)” value ([1]; 6 mg/kg, p.o., vs non-drug treated allogenic control) is reported as 86%, the “PLN (ratio)” value [1] is reported as 1.0 and the MIC (Candida albicans 3669) is reported as 0.025 µg/mL (≈ 0.0273 µM). It also gave an MIC [2] of 0.003 µg/mL (≈ 0.00328 µM), an MIC [3] of 0.025 µg/mL (≈ 0.0273 µM) and an MIC [4] of 0.003 µg/mL (≈ 0.00328 µM). The MIC [5] was 0.006 µg/mL (≈ 0.00656 µM), the antifungal activity (Candida albicans) was “antifungal activity” and the “effect in experimental allergic encephalomyelitis model” value [6] was “effective”. The “effect in adjuvant arthritis model” value (adjuvant arthritis) was “effective”, the “inhibition of formation of IgE-like antibodies” value (IgE-like antibodies) was “effectively inhibited” and the “inhibition of transplant rejection” value (transplant rejection) was “effective in inhibiting transplant rejection”.
